In one series the test system is Bacillus cereus. As to the kind of experiment: Antibacterial activity against Bacillus cereus ATCC 11778 after overnight incubation. It counts as functional.
Series [1] deals with Staphylococcus epidermidis. As to the kind of experiment: Antibacterial activity against Staphylococcus epidermidis ATCC 12228 after overnight incubation. The format is functional.
In series [2] the test system is Escherichia coli. The experiment in a line: Antibacterial activity against Escherichia coli ATCC 25922 after overnight incubation. The format is functional.
Series [3] has as its system Staphylococcus aureus. As to the kind of experiment: Antibacterial activity against Staphylococcus aureus ATCC 29213 after overnight incubation. It counts as functional.
Series [4] has as its system Enterococcus faecalis. As to the kind of experiment: Antibacterial activity against Enterococcus faecalis ATCC 29212 after overnight incubation. The format is functional.
For series [5], the system named is Pseudomonas aeruginosa. As to the kind of experiment: Antibacterial activity against Pseudomonas aeruginosa ATCC 27853 after overnight incubation. It counts as functional.
The nature of series [6]: Therapeutic index, ratio of HD100 for hemolytic activity in human RBC to MIC against Staphylococcus aureus. It counts as toxicity. To be noted: human red blood cells, read-out: TI.
The subject of series [7] is Pseudomonas aeruginosa. As to the kind of experiment: Antibacterial activity against Pseudomonas aeruginosa after 24 hrs by microtitre dilution method. It counts as functional.
The nature of series [8]: Therapeutic index, ratio of HD100 for hemolytic activity in human RBC to MIC against Enterococcus faecalis. To be noted: human red blood cells, read-out: TI. It counts as toxicity.
The nature of series [9]: Therapeutic index, ratio of HD100 for hemolytic activity in human erythrocytes to MIC against Escherichia coli. It counts as toxicity, cell-based. To be noted: read-out: TI.
For series [10], the system named is Enterococcus faecalis. As to the kind of experiment: Antibacterial activity against Enterococcus faecalis after 24 hrs by microtitre dilution method. The format is functional.
Series [11] concerns Staphylococcus aureus. The experiment in a line: Antibacterial activity against Staphylococcus aureus after 24 hrs by microtitre dilution method. It counts as functional.
Series [12] can be described thus: Therapeutic index, ratio of HD100 for hemolytic activity in human erythrocytes to MIC against Pseudomonas aeruginosa. The format is toxicity, cell-based. To be noted: read-out: TI.
A further series concerns Candida albicans. As to the kind of experiment: Antibacterial activity against Candida albicans after 24 hrs by microtitre dilution method. The format is functional.
The test system of series [13] is Escherichia coli. As to the kind of experiment: Antibacterial activity against Escherichia coli after 24 hrs by microtitre dilution method. It counts as functional.
A short description of series [14]: Therapeutic index, ratio of HC90 for hemolytic activity in human erythrocytes to MIC against Enterococcus faecalis ATCC 29212. The format is toxicity, cell-based. As to conditions: read-out: TI.
The nature of series [15]: Therapeutic index, ratio of HC90 for hemolytic activity in human erythrocytes to MIC against Staphylococcus aureus ATCC 25923. The format is toxicity, cell-based. As to conditions: read-out: TI.
Series [16] can be described thus: Therapeutic index, ratio of HC90 for hemolytic activity in human erythrocytes to MIC against Escherichia coli ATCC 25922. As to conditions: read-out: TI. The format is toxicity, cell-based.
The subject of series [17] is Pseudomonas aeruginosa. As to the kind of experiment: Antibacterial activity against Pseudomonas aeruginosa ATCC 27853 after 22 hrs by double dilution method. It counts as functional. To be noted: ATCC 27853, 22 h.
A short description of series [18]: Therapeutic index, ratio of HC90 for hemolytic activity in human erythrocytes to MIC against Pseudomonas aeruginosa ATCC 27853. It counts as toxicity, cell-based. To be noted: read-out: TI.
Series [19] relates to Erythrocyte. The experiment in a line: Haemolytic activity in human RBC after 30 mins by spectrophotometric analysis. It counts as ADME, cell-based. To be noted: 0.5 h.
Series [20] deals with Staphylococcus epidermidis. As to the kind of experiment: Antibacterial activity against Staphylococcus epidermidis ATCC 12228 after 22 hrs by double dilution method. The format is functional. To be noted: ATCC 12228, 22 h.
Series [21] deals with Staphylococcus aureus. The experiment in a line: Antibacterial activity against Staphylococcus aureus ATCC 25923 after 22 hrs by double dilution method. It counts as functional. As to conditions: ATCC 25923, 22 h.
Series [22] concerns Enterococcus faecalis. As to the kind of experiment: Antibacterial activity against Enterococcus faecalis ATCC 29212 after 22 hrs by double dilution method. The format is functional. As to conditions: ATCC 29212, 22 h.
Series [23] in a line: Therapeutic index, ratio of HC90 for hemolytic activity in human erythrocytes to MIC against Staphylococcus epidermidis ATCC 12228. As to conditions: read-out: TI. It counts as toxicity, cell-based.
Series [24] has as its system Escherichia coli. As to the kind of experiment: Antibacterial activity against Escherichia coli ATCC 25922 after 22 hrs by double dilution method. The format is functional. As to conditions: ATCC 25922, 22 h.
Series [25] has as its system Erythrocyte. The experiment in a line: Hemolytic activity against RBC (unknown origin) at 100 ul after 4 hrs. It counts as ADME, cell-based. As to conditions: erythrocyte, 4 h.

Structures are written as SMILES. Values after ≈ are worked out from the molar mass of the structure shown. Square brackets hold non-standard residues; d marks the D form. Peptide text beside a SMILES is read from it. Some results are limits rather than exact numbers.

The MIC is the lowest concentration that inhibits growth of the organism. Read a high MIC as a need for much substance. As for `CC(C)C[C@@H]1NC(=O)[C@H](CCCN)NC(=O)[C@H](C(C)C)NC(=O)[C@@H]2CCCN2C(=O)[C@@H](Cc2ccccc2)NC(=O)[C@H](CC(C)C)NC(=O)[C@H](CCCN)NC(=O)[C@H](C(C)C)NC(=O)[C@@H]2O[C@H](CNC1=O)[C@@H](OCc1ccc3ccccc3c1)[C@@H]2O`, the MIC against Bacillus cereus was 4 µg/mL (≈ 3.34 µM); in series [1], 2 µg/mL (≈ 1.67 µM); in the series on Escherichia coli [2], > 64 µg/mL; against Staphylococcus aureus [3], 4 to 8 µg/mL (≈ 3.34 to 6.69 µM); against Enterococcus faecalis [4] it was 8 µg/mL (≈ 6.69 µM); in the series with Pseudomonas aeruginosa [5], > 64 µg/mL.
For `CC(C)C[C@@H]1NC(=O)[C@H](CCCCN)NC(=O)[C@H](C(C)C)NC(=O)[C@@H]2CCCN2C(=O)[C@@H](Cc2ccc(O)cc2)NC(=O)[C@H](CC(C)C)NC(=O)[C@H](CCCCN)NC(=O)[C@H](C(C)C)NC(=O)[C@H](CCCCN)NC(=O)[C@H](CC(C)C)NC(=O)[C@H](CCCCN)NC(=O)[C@@H]2CCCN2C(=O)[C@@H](Cc2ccc(O)cc2)NC(=O)[C@H](CCCCN)NC(=O)[C@H](C(C)C)NC(=O)[C@H](CCCCN)NC1=O` (cyclo(VKLKVK[dY]PKLKVKL[dY]P)), the selectivity ratio is > 25 in series [6], > 50 in series [8], > 50 in [9] and > 3.1 in series [12]. Further, the MIC with Pseudomonas aeruginosa [7] was found to be 64 µg/mL (≈ 33.2 µM); in the series on Enterococcus faecalis [10], 4 µg/mL (≈ 2.08 µM); in the series on Staphylococcus aureus [11], 8 µg/mL (≈ 4.15 µM); in the series with Candida albicans it was 16 µg/mL (≈ 8.31 µM); against Escherichia coli [13] it was 4 µg/mL (≈ 2.08 µM).
As to `CCCCCCCC[C@H]1CC2C(C1)[C@@H]1SC[C@H]3C(=O)N[C@@H](C(C)C)C(=O)N[C@@H](CCCN)C(=O)N[C@@H](CC(C)C)C(=O)N[C@H](Cc4ccccc4)C(=O)N4CCC[C@H]4C(=O)N[C@@H](C(C)C)C(=O)N[C@H](CCCN)C(=O)N[C@@H](CC(C)C)C(=O)N[C@H]2C(=O)N31` (some centres not stated), the selectivity ratio amounted to 4.75 in series [14]; 9.5 in [15]; 0.59 in series [16]; 0.3 in series [18]; 9.5 in [23]. The MIC with Pseudomonas aeruginosa [17] turned out to be 128 µg/mL (≈ 103 µM); in series [20] it was 4 µg/mL (≈ 3.21 µM); in the series on Staphylococcus aureus [21] it was 4 µg/mL (≈ 3.21 µM); in the series on Enterococcus faecalis [22], 8 µg/mL (≈ 6.41 µM); against Escherichia coli [24] it was 64 µg/mL (≈ 51.3 µM). This compound registered an HC90 with Erythrocyte [19] of 38 µg/mL.
In the series with Erythrocyte [25], `CC(C)C[C@@H]1NC(=O)[C@H](CCCN)NC(=O)[C@H](C(C)C)NC(=O)[C@@H]2CCCN2C(=O)[C@@H](Cc2ccccc2)NC(=O)[C@H](CC(C)C)NC(=O)[C@H](CCCN)NC(=O)[C@H](C(C)C)NC(=O)[C@H]2CC[C@H](OCc3ccccc3)[C@@H](CNC1=O)O2` had an HD100 of 500 µg/mL.

These data come from ChEMBL document CHEMBL4376803, “Recent Advances in the Exploration of Therapeutic Analogues of Gramicidin S, an Old but Still Potent Antimicrobial Peptide” (J Med Chem, 2019).
